Data set [1] in a line: Rubbing between thumb and finger (hygroscopicity). It is filed as physicochemical. Particulars: rubbed between thumb and finger; moisture from thumb, finger and surrounding air. From the text: Sample 1 was further compared to Sample 2 by rubbing a portion of each between the thumb and finger.
Data set [2] is described as follows: Addition to stimulated gastric solution (stability in acid solution, colour change). It is filed as physicochemical. Particulars: added to stimulated gastric solution. The procedure:
Finally, Sample 2 was added to a stimulated gastric solution which caused the product to change color. Sample 1 was similarly added to a stimulated gastric solution.

Another data set can be described thus: Particle size. The class given is physicochemical. From the text: The particle size found in Sample 1 and Sample 2 was about 70 mesh.
Data set [3] can be described thus: Shaking in a plastic bag (electrostatic behaviour of the powder). It is filed as physicochemical. The note with it: shaken in a plastic bag. The procedure: A 10:1 mixture of copper bisglycinate to terra alba (CaSO4) [Sample 1] was prepared and shaken together in a plastic bag. Next, a pure copper bisglycinate without the presence of terra alba [Sample 2] was also prepared and shaken in a plastic bag.

The conditions of data set [4]: zero ionic strength; reaction M^2+ + (Gly)^- <-> M(Gly)^+; cited from earlier work.

Regarding `NCC(=O)[O-].NCC(=O)[O-].[Cu+2]` [Sample 2, copper bisglycinate], in data set [1], the “hygroscopicity: balling up with moisture” value is reported as “quickly balled up”. For the same compound, in data set [2], the “color change in stimulated gastric solution (stability in acid solution)” value is given as “change color”. Also, the particle size entry in the data set “Particle size” is on record as “about 70 mesh”. In addition, the “electrostatic behaviour: product sticking to the walls of the bag” value in data set [3] is listed as “a blue hazei of product stuck the walls of the bag”.
For copper, the “log of the equilibrium constant” value in data set [4] is listed as 8.56.

The values above are taken from US6407138B1, “Composition and method for preparing electrically neutral amino acid chelates free of interfering ions” (Albion International, Inc., priority 2000, dated 2002).
